Measurements published in ChEMBL document CHEMBL5042521, “A Structure-based Design Approach for Generating High Affinity BRD4 D1-Selective Chemical Probes” (J Med Chem, 2022).

Tests used:
[1] = molecular target: Bromodomain-containing protein 4 (Homo sapiens, UniProt O60885)
Description: Binding affinity to BRD4 D2 (unknown origin) assessed as dissociation constant by isothermal titration calorimetry

[2] = molecular target: Bromodomain-containing protein 2 (Homo sapiens, UniProt P25440)
Chain of Bromodomain-containing protein 2 (P25440 whole entry): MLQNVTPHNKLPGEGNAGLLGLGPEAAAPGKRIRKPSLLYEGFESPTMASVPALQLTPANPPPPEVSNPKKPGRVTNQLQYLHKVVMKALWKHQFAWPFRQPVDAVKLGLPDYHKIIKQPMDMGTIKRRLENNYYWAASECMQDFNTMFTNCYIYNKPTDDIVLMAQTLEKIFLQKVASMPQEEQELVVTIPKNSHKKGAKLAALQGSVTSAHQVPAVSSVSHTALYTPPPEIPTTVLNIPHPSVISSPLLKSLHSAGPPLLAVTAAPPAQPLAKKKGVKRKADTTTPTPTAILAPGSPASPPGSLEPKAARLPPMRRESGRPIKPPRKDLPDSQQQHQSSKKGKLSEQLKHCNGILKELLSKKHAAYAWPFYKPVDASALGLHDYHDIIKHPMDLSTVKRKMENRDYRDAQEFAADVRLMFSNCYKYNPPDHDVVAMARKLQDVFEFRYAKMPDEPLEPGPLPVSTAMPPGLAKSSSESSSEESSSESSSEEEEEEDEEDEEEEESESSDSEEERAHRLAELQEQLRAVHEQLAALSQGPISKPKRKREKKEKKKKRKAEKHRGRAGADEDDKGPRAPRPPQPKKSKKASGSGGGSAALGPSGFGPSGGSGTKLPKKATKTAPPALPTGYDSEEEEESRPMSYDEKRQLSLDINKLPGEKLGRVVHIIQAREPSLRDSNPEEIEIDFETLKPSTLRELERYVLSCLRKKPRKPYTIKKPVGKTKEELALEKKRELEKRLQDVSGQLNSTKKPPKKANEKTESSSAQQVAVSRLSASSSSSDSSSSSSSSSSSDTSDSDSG
Description: Binding affinity to BRD2 D1 (unknown origin) assessed as dissociation constant by isothermal titration calorimetry

Row | SMILES | Kd [1] | Kd [2]
1 | Cc1ccc(C(C)C)cc1Oc1nccc(-c2c(-c3ccc(C(F)(F)F)cc3)ncn2C2CCN(CCN(C)C)CC2)n1 | Not Active | Not Active
2 | Cc1ccc(C(C)C)cc1Oc1nccc(-c2c(-c3ccc(C(F)(F)F)cc3)ncn2[C@H]2CCN(CCN(C)C)C2)n1 | Not Active | Not Active
